Assay results from patent US8557848B2, “4,5-ring annulated indole derivatives for treating or preventing of HCV and related viral infections” (Merck Sharp & Dohme Corp., priority 2006, dated 2013).
pEC50, pIC50: −log10 of the molar value. Where two headings read alike, the source gives them in different places.

Legend:
[1] = target: T1, HCV NS5B polymerase (NS5BΔCT21, from HCV-Con 1 isolate, genotype 1b) (Hepatitis C virus genotype 1b, UniProt Q9WMX2); assay: HCV NS5B Polymerase Inhibition Assay; type: biochemical
T1 construct: A soluble C-terminal 21-amino acid truncated NS5B enzyme form; polyhistidine (C); made in house; host or cells: Escherichia coli
Excerpt: A chemically synthesized 75-mer version, designated DCoH75, whose sequence matches the 3′-end of D-RNA, and DCoH75ddC, where the 3′-terminal cytidine of DCoH75 is replaced by dideoxycytidine, were used for assaying the NS5B enzyme activity as described in Ferrari et al., 12th International Symposium on HCV and Related Viruses, P-306 (2005). The sequence of the template RNA was: 5′-UGUGCCGGUCUUUCUGAACGGGAUAUAAACCUGGCCAGCUUCAUCGAACAAGUUGCCGUGUCUAUGACAUAGAUC-3′. A soluble C-terminal 21-amino acid truncated NS5B enzyme form (NS5BΔCT21, from HCV-Con 1 isolate, genotype 1b, Genbank accession number AJ238799) was produced and purified from Escherichia coli as C-terminal polyhistidine-tagged fusion protein as described in Ferrari et al., J. Virol. 73:1649-1654 (1999). A typical assay contained 20 mM Hepes pH 7.3, 10 mM MgCl2, 60 mM NaCl, 100 μg/ml BSA, 20 units/ml RNasin, 7.5 mM DTT, 0.1 μM ATP/GTP/UTP, 0.026 μM CTP, 0.25 mM GAU, 0.03 μM RNA template, 20 μCi/ml [^33P]-CTP, 2% DMSO, and 30 or 150 nM NS5B enzyme. Reactions were incubated at 22° C. for 2 hours, then stopped by adding 150 mM EDTA, washed in DE81 filter plate in 0.5M di-basic sodium phosphate buffer, pH 7.0, and counted using Packard TopCount after the addition of scintillation cocktail. Polynucleotide synthesis was monitored by the incorporation of radiolabeled CTP. The effect of the Compounds of Formula (I) on the polymerase activity was evaluated by adding various concentrations of a Compound of Formula (I), typically in 10 serial 2-fold dilutions, to the assay mixture. The starting concentrations ranged from 200 μM to 1 μM. An IC50 value for the inhibitor, defined as the compound concentration that provides 50% inhibition of polymerase activity, was determined by fitting the cpm data to the Hill equation Y=100/(1+10^((LogIC50-X)*HillSlope)), where X is the logarithm of compound concentration, and Y is the % inhibition. Ferrari et al., 12th International Symposium on HCV and Related Viruses, P-306 (2005) described in detail this assay procedure. It should be noted that such an assay as described is exemplary and not intended to limit the scope of the invention. The skilled practitioner can appreciate that modifications including but not limited to RNA template, primer, nucleotides, NS5B polymerase form, buffer composition, can be made to develop similar assays that yield the same result for the efficacy of the compounds and compositions described in the invention.
NS5B polymerase inhibition data for selected Compounds of Formula (I) is provided below in Table 2, wherein the compound numbers correspond to the compound numbering set forth in the above specification.

[2] = system: HCV replicon cells (replicon RNA level); assay: Cell-Based HCV Replicon Assay; conditions: Hepatitis C virus, 72 h
Description: To measure cell-based anti-HCV activity of the a Compound of Formula (I), replicon cells were seeded at 5000 cells/well in 96-well collagen I-coated Nunc plates in the presence of the Compound of Formula (I). Various concentrations of a Compound of Formula (I), typically in 10 serial 2-fold dilutions, were added to the assay mixture, with the starting concentration ranging from 250 μM to 1 μM. The final concentration of DMSO was 0.5%, fetal bovine serum was 5%, in the assay media. Cells were harvested on day 3 by the addition of 1× cell lysis buffer (Ambion cat #8721). The replicon RNA level was measured using real time PCR (Taqman assay). The amplicon was located in 5B. The PCR primers were: 5B.2F, ATGGACAGGCGCCCTGA; 5B.2R, […]; the probe sequence was FAM-labeled CACGCCATGCGCTGCGG. GAPDH RNA was used as endogenous control and was amplified in the same reaction as NS5B (multiplex PCR) using primers and VIC-labeled probe recommended by the manufacturer (PE Applied Biosystem). The real-time RT-PCR reactions were run on ABI PRISM 7900HT Sequence Detection System using the following program: 48° C. for 30 min, 95° C. for 10 min, 40 cycles of 95° C. for 15 sec, 60° C. for 1 min. The ΔCT values (CT5B-CTGAPDH) were plotted against the concentration of test compound and fitted to the sigmoid dose-response model using XLfit4 (MDL). EC50 was defined as the concentration of inhibitor necessary to achieve ΔCT=1 over the projected baseline; EC90 the concentration necessary to achieve ΔCT=3.2 over the baseline. Alternatively, to quantitate the absolute amount of replicon RNA, a standard curve was established by including serially diluted T7 transcripts of replicon RNA in the Taqman assay. All Taqman reagents were from PE Applied Biosystems. Such an assay procedure was described in detail in e.g. Malcolm et al., Antimicrobial Agents and Chemotherapy 50: 1013-1020 (2006).
HCV Replicon assay data for selected Compounds of Formula (I) is provided below in Table 1, wherein the compound numbers correspond to the compound numbering set forth in the above specification.

[3] = NS5B polymerase inhibition, [33P]-CTP incorporation, 22° C. for 2 hours, read-out: IC50
[4] = replicon RNA level by real time PCR (Taqman), cells harvested on day 3, read-out: EC50

SMILES | pIC50 [1, 3] | pEC50 [2] | pEC50 [2, 4] | pIC50 [1]
O=C(O)c1c(-c2ccc[nH]c2=O)c2c3occc3c(F)cc2n1Cc1cc(=O)[nH]cc1F [Compound 87] | > 7.60 | > 6.30 |  | 
CS(=O)(=O)NC(=O)c1c(-c2ccc[nH]c2=O)c2c3occc3ccc2n1Cc1ccccc1Cl [Compound 67] | > 7.60 |  | > 6.30 | 
O=C(NS(=O)(=O)C1CC1)c1c(-c2ccc[nH]c2=O)c2c3occc3c(F)cc2n1Cc1cc(F)ccc1F [Compound 177] | > 7.60 |  | > 6.30 | 
O=C(NS(=O)(=O)C1CC1)c1c(-c2ccc[nH]c2=O)c2c3occc3c(F)cc2n1Cc1cc(=O)[nH]cc1F [Compound 174] | > 7.60 |  | > 6.30 | 
COc1ccc2nc(Cl)c(Cn3c(C(=O)O)c(-c4ccc[nH]c4=O)c4c5occc5c(F)cc43)cc2c1 [Compound 154] | > 7.60 |  | > 6.30 | 
CN(C)S(=O)(=O)NC(=O)c1c(-c2ccc[nH]c2=O)c2c3occc3c(F)cc2n1Cc1cc2ccccc2nc1Cl [Compound 215] | > 7.60 |  | > 6.30 | 
CCc1coc2c1ccc1c2c(-c2ccc[nH]c2=O)c(C(=O)NS(C)(=O)=O)n1Cc1ccccc1F [Compound 70] | < 7.00 |  | < 5.82 | 
CCCS(=O)(=O)NC(=O)c1c(-c2ccc[nH]c2=O)c2c3occc3c(F)cc2n1Cc1cc2ccccc2nc1Cl [Compound 213] | > 7.60 |  | > 6.30 | 
NC(=O)c1ncc(Cn2c(C(=O)O)c(-c3ccc[nH]c3=O)c3c4occc4c(F)cc32)s1 [Compound 98] | 7.00 to 7.60 |  | 5.82 to 6.30 | 
O=C(O)c1c(-c2ccc[nH]c2=O)c2c3occc3c(F)cc2n1Cc1cc([N+](=O)[O-])ccc1F [Compound 111] | > 7.60 |  | > 6.30 | 
NC(=O)c1cc(Cn2c(C(=O)O)c(-c3ccc[nH]c3=O)c3c4c(c(F)cc32)CCO4)cs1 [Compound 99] | > 7.60 |  | 5.82 to 6.30 | 
Cc1ccc(Cn2c(C(=O)NS(C)(=O)=O)c(-c3ccc[nH]c3=O)c3c4occc4ccc32)c(C)c1 [Compound 60] | > 7.60 |  | > 6.30 | 
O=C(O)c1c(-c2ccc[nH]c2=O)c2c3scnc3ccc2n1Cc1ccc(F)cc1F [Compound 16] | < 7.00 |  | < 5.82 | 
O=C(NS(=O)(=O)C1CC1)c1c(-c2ccc[nH]c2=O)c2c3ncsc3ccc2n1Cc1cc2ccccc2nc1Cl [Compound 209] | > 7.60 |  | > 6.30 | 
O=C(O)c1c(-c2ccc[nH]c2=O)c2c3occc3c(F)cc2n1Cc1cc(=O)[nH]c2ccccc12 [Compound 114] |  |  | > 6.30 | > 7.60
CS(=O)(=O)NC(=O)c1c(-c2ccc[nH]c2=O)c2c3occc3c(F)cc2n1Cc1ccc2[nH]c(N)nc2c1 [Compound 169] | > 7.60 |  | > 6.30 | 
O=C(O)c1c(-c2ccc[nH]c2=O)c2c3occc3c(F)cc2n1Cc1cc2[nH]c(=O)[nH]c2cc1Cl [Compound 131] | > 7.60 |  | > 6.30 | 
Cc1ccccc1Cn1c(C(=O)O)c(-c2ccc[nH]c2=O)c2c3occc3ccc21 [Compound 41] | > 7.60 |  | > 6.30 | 
Cc1cccc(Cn2c(C(=O)NS(=O)(=O)C(C)C)c(-c3ccc[nH]c3=O)c3c4occc4ccc32)c1F [Compound 158] | > 7.60 |  | 5.82 to 6.30 | 

SMILES | pIC50 [1, 3] | pEC50 [2] | pEC50 [2, 4] | pIC50 [1]
Cc1cc2ccc3c(c(-c4ccc[nH]c4=O)c(C(=O)NS(C)(=O)=O)n3Cc3ccccc3F)c2o1 [Compound 132] | 7.00 to 7.60 |  | 5.82 to 6.30 | 
O=C(O)c1c(-c2ccc[nH]c2=O)c2c3occc3c(F)cc2n1Cc1ccc2[nH]c(C(F)(F)F)nc2c1 [Compound 145] | > 7.60 |  | 5.82 to 6.30 | 
Cc1ccccc1Cn1c(C(=O)NS(C)(=O)=O)c(-c2ccc[nH]c2=O)c2c3occc3ccc21 [Compound 61] | > 7.60 |  | > 6.30 | 
CCOC(=O)c1c(-c2ccc[nH]c2=O)c2c3occc3c(F)cc2n1Cc1cc(C(N)=O)ccc1F [Compound 130] | 7.00 to 7.60 |  | > 6.30 | 
O=C(O)c1c(-c2ccc[nH]c2=O)c2c3occ(Cl)c3ccc2n1Cc1cc(F)ccc1F [Compound 46] | > 7.60 |  | > 6.30 | 
CS(=O)(=O)NC(=O)c1c(-c2ccc[nH]c2=O)c2c3sccc3ccc2n1Cc1cc(F)ccc1F [Compound 52] | > 7.60 |  | < 5.82 | 
O=C(NC1CC1)c1ccc(F)c(Cn2c(C(=O)NS(=O)(=O)C3CC3)c(-c3ccc[nH]c3=O)c3c4occc4c(F)cc32)c1 [Compound 221] | > 7.60 |  | < 5.82 | 
CC(C)(C)C(=O)OCn1cccc(-c2c(C(=O)O)n(Cc3cc4ccccc4nc3Cl)c3cc(F)c4ccoc4c23)c1=O [Compound 219] | < 7.00 |  | > 6.30 | 
CS(=O)(=O)NC(=O)c1c(-c2ccc[nH]c2=O)c2c3c(ccc2n1Cc1cc(F)ccc1F)CCC3 [Compound 12] | > 7.60 |  | 5.82 to 6.30 | 
NC(=O)c1ccc(F)c(Cn2c(C(=O)O)c(-c3ccc[nH]c3=O)c3c4occc4ccc32)c1 [Compound 94] | > 7.60 |  | > 6.30 | 
Cc1coc2c1ccc1c2c(-c2ccc[nH]c2=O)c(C(=O)O)n1Cc1cc(F)ccc1F [Compound 47] | < 7.00 |  | < 5.82 | 
Cc1cccc(Cn2c(C(=O)O)c(-c3ccc[nH]c3=O)c3c4occ(C)c4ccc32)c1F [Compound 48] | < 7.00 |  | < 5.82 | 
O=C(O)c1c(-c2ccc[nH]c2=O)c2c3occ(Cl)c3ccc2n1Cc1ccccc1F [Compound 45] | > 7.60 |  | > 6.30 | 
CS(=O)(=O)NC(=O)c1c(-c2ccc[nH]c2=O)c2c3c(ccc2n1Cc1ccccc1F)OC(F)(F)O3 [Compound 56] |  |  | < 5.82 | > 7.60
CS(=O)(=O)NC(=O)c1c(-c2ccc[nH]c2=O)c2c3occc3c(F)cc2n1Cc1cc2nc[nH]c2cc1Cl [Compound 182] | > 7.60 |  | > 6.30 | 
CS(=O)(=O)NC(=O)c1c(-c2ccc[nH]c2=O)c2c3occc3c(F)cc2n1Cc1cc([N+](=O)[O-])ccc1F [Compound 179] | > 7.60 |  | > 6.30 | 
O=C(NS(=O)(=O)C1CC1)c1c(-c2ccc[nH]c2=O)c2c3occc3c(F)cc2n1Cc1ccc2[nH]c(=O)[nH]c2c1 [Compound 190] | > 7.60 |  | > 6.30 | 
O=C(O)c1c(-c2ccccc2F)c2c3occc3c(F)cc2n1Cc1cc2ccccc2nc1Cl [Compound 128] | < 7.00 |  | > 6.30 | 
Cc1cccc(Cn2c(C(=O)NS(C)(=O)=O)c(-c3ccc[nH]c3=O)c3c4occc4c(F)cc32)c1F [Compound 146] | > 7.60 |  | > 6.30 | 
